Results from ChEMBL document CHEMBL3390841, “Design and synthesis of novel N,N-glycoside derivatives of 3,3-diindolylmethanes as potential antiproliferative agents” (Medchemcomm, 2012).
Calls of active or inactive are those of the source. The rule behind the calls is not given here.

Tests used:
[1] = system: A549; assay: Cytotoxicity against human A549 cells assessed as growth inhibition after 48 hrs by MTT assay; type: functional, cell-based
[2] = system: HeLa; assay: Cytotoxicity against human HeLa cells assessed as growth inhibition after 48 hrs by MTT assay; type: functional, cell-based; design: unit not given here
[3] = system: MCF7; assay: Cytotoxicity against human MCF7 cells assessed as growth inhibition after 48 hrs by MTT assay; type: functional, cell-based
[4] = system: HeLa; assay: Cytotoxicity against human HeLa cells assessed as inhibition of colony formation at 0.1 to 1 umol after 5 days by crystal violet staining assay; type: functional, cell-based
[5] = system: HeLa; assay: Antimigratory activity against human HeLa cells in low serum containing medium at 0.3 to 1 umol after 24 hrs by wound healing assay; type: functional, cell-based
[6] = system: HeLa; assay: Induction of apoptosis in human HeLa cells assessed as upregulation of par-4 protein expression after 24 hrs by Western blot analysis; type: functional, cell-based
[7] = system: HeLa; assay: Induction of apoptosis in human HeLa cells assessed as downregulation of GRP78 protein expression after 24 hrs by Western blot analysis; type: functional, cell-based
[8] = system: HeLa; assay: Induction of apoptosis in human HeLa cells assessed as downregulation of Bcl-2 protein expression after 24 hrs by Western blot analysis; type: functional, cell-based
[9] = system: HeLa; assay: Induction of apoptosis in human HeLa cells assessed as downregulation of survivin protein expression after 24 hrs by Western blot analysis; type: functional, cell-based
[10] = system: HeLa; assay: Cell cycle arrest in human HeLa cells assessed as accumulation at sub-G1 phase at 0.1 umol after 24 hrs (reference value: 7.8%); type: functional
[11] = system: HeLa; assay: Cell cycle arrest in human HeLa cells assessed as accumulation at sub-G1 phase at 0.3 umol after 24 hrs (reference value: 7.8%); type: functional
[12] = system: HeLa; assay: Cell cycle arrest in human HeLa cells assessed as accumulation at sub-G1 phase at 1 umol after 24 hrs (reference value: 7.8%); type: functional
[13] = system: HeLa; assay: Antimigratory activity against human HeLa cells in low serum containing medium at 25 nmol after 24 hrs by wound healing assay; type: functional, cell-based

| SMILES | IC50 [1] [µM] | IC50 [2] | IC50 [3] [µM] | further results |
| --- | --- | --- | --- | --- |
| Oc1cccc(C(c2c[nH]c3ccc(Br)cc23)c2c[nH]c3ccc(Br)cc23)c1 | 8 | 3.9 | 2.8 | – |
| Brc1ccc2[nH]cc(C(c3ccccc3)c3c[nH]c4ccc(Br)cc34)c2c1 | 7.5 | 0.9 | 5.5 | – |
| N#Cc1ccc2[nH]cc(C(c3ccc(Br)cc3)c3c[nH]c4ccc(C#N)cc34)c2c1 | > 100 | > 100 | 27.1 | – |
| COc1ccc(C(c2c[nH]c3ccc(Br)cc23)c2c[nH]c3ccc(Br)cc23)cc1OC | 12 | 6.1 | 7.8 | – |
| CCCC(c1c[nH]c2ccc(Br)cc12)c1c[nH]c2ccc(Br)cc12 | 6.5 | 3.9 | 3.6 | – |
| CCCCCCCC(c1cn([C@@H]2O[C@H](COC(C)=O)[C@@H](OC(C)=O)[C@H](OC(C)=O)[C@H]2OC(C)=O)c2ccc(Br)cc12)c1cn([C@@H]2O[C@H](COC(C)=O)[C@@H](OC(C)=O)[C@H](OC(C)=O)[C@H]2OC(C)=O)c2ccc(Br)cc12 | 17 | 10 | > 100 | – |
| Brc1ccc2[nH]cc(C(c3c[nH]c4ccc(Br)cc34)C3CCCCC3)c2c1 | 5.5 | 3.2 | 4.1 | – |
| CCCCCCCC(c1c[nH]c2ccc(Br)cc12)c1c[nH]c2ccc(Br)cc12 | 3.5 | 1.3 | 5.5 | inhibition [4]: Active |
| O=[N+]([O-])c1ccc2[nH]cc(C(c3ccc(Br)cc3)c3c[nH]c4ccc([N+](=O)[O-])cc34)c2c1 | > 100 | > 100 | > 100 | – |
| CC(=O)OC[C@H]1O[C@@H](n2cc(C(c3ccc(Br)cc3)c3cn([C@@H]4O[C@H](COC(C)=O)[C@@H](OC(C)=O)[C@H](OC(C)=O)[C@H]4OC(C)=O)c4ccc(Br)cc34)c3cc(Br)ccc32)[C@H](OC(C)=O)[C@@H](OC(C)=O)[C@@H]1OC(C)=O | 24 | 70 | > 100 | – |
| O=[N+]([O-])c1ccc(C(c2c[nH]c3ccc([N+](=O)[O-])cc23)c2c[nH]c3ccc([N+](=O)[O-])cc23)cc1 | > 100 | > 100 | 22.5 | – |
| CCCCCCCC(c1cn([C@@H]2O[C@H](CO)[C@@H](O)[C@H](O)[C@H]2O)c2ccc(Br)cc12)c1cn([C@@H]2O[C@H](CO)[C@@H](O)[C@H](O)[C@H]2O)c2ccc(Br)cc12 | 1.3 | 0.3 | 0.9 | inhibition [4]: Active; Activity [5]: Active; Activity [6]: Dose-dependent effect; Activity [7]: Dose-dependent effect; Activity [8]: Dose-dependent effect; Activity [9]: Dose-dependent effect; Activity [10]: 27.8%; Activity [11]: 19.3%; Activity [12]: 22.4% |
| CCCCCCCC(c1c[nH]c2ccc([N+](=O)[O-])cc12)c1c[nH]c2ccc([N+](=O)[O-])cc12 | 12.5 | 35 | 5.8 | – |
| COc1ccc(C(c2c[nH]c3ccc(Br)cc23)c2c[nH]c3ccc(Br)cc23)cc1 | 10 | 5.5 | 2.3 | – |
| CCCCCCCC(c1c[nH]c2ccc(C#N)cc12)c1c[nH]c2ccc(C#N)cc12 | 26 | 7 | 2.5 | – |
| Brc1ccc(C(c2c[nH]c3ccc(Br)cc23)c2c[nH]c3ccc(Br)cc23)cc1 | 5.6 | 1.5 | 3.2 | inhibition [4]: Active |
| OC[C@H]1O[C@@H](n2cc(C(c3ccc(Cl)cc3)c3cn([C@@H]4O[C@H](CO)[C@@H](O)[C@H](O)[C@H]4O)c4ccc(Br)cc34)c3cc(Br)ccc32)[C@H](O)[C@@H](O)[C@@H]1O | 2.7 | 32 | 53.2 | – |
| CC(c1ccccc1)(c1c[nH]c2ccccc12)c1c[nH]c2ccccc12 | 8.5 | 4.2 | 4 | – |

| SMILES | IC50 [1] [µM] | IC50 [2] | IC50 [3] [µM] | further results |
| --- | --- | --- | --- | --- |
| OC[C@H]1O[C@@H](n2cc(C(c3ccc(Br)cc3)c3cn([C@@H]4O[C@H](CO)[C@@H](O)[C@H](O)[C@H]4O)c4ccc(Br)cc34)c3cc(Br)ccc32)[C@H](O)[C@@H](O)[C@@H]1O | 2.5 | 27 | 51.1 | – |
| CC(=O)OC[C@H]1O[C@@H](n2cc(C(c3ccc([N+](=O)[O-])cc3)c3cn([C@@H]4O[C@H](COC(C)=O)[C@@H](OC(C)=O)[C@H](OC(C)=O)[C@H]4OC(C)=O)c4ccc(Br)cc34)c3cc(Br)ccc32)[C@H](OC(C)=O)[C@@H](OC(C)=O)[C@@H]1OC(C)=O | 8 | 3.5 | > 100 | – |
| c1ccc(C(c2c[nH]c3ccccc23)c2c[nH]c3ccccc23)cc1 | 40 | 21.8 | 22.2 | – |
| COc1ccc(OC)c(C(c2c[nH]c3ccc(Br)cc23)c2c[nH]c3ccc(Br)cc23)c1 | 10 | 5.1 | 2.8 | – |
| Brc1ccc2[nH]cc(C(c3ccc4ccccc4c3)c3c[nH]c4ccc(Br)cc34)c2c1 | 8.5 | 4.3 | 7.1 | – |
| Oc1ccc(C(c2c[nH]c3ccc(Br)cc23)c2c[nH]c3ccc(Br)cc23)cc1 | – | – | 3.5 | – |
| O=[N+]([O-])c1ccc(C(c2c[nH]c3ccc(Br)cc23)c2c[nH]c3ccc(Br)cc23)cc1 | 5.5 | 1.5 | 3.1 | inhibition [4]: Active |
| O=[N+]([O-])c1ccc(C(c2cn([C@@H]3O[C@H](CO)[C@@H](O)[C@H](O)[C@H]3O)c3ccc(Br)cc23)c2cn([C@@H]3O[C@H](CO)[C@@H](O)[C@H](O)[C@H]3O)c3ccc(Br)cc23)cc1 | 2.4 | 30 | 66.7 | – |
| N#Cc1ccc2[nH]cc(C(c3ccc(Cl)cc3)c3c[nH]c4ccc(C#N)cc34)c2c1 | > 100 | > 100 | 23.6 | – |
| COc1ccc(C(c2c[nH]c3ccc(Br)cc23)c2c[nH]c3ccc(Br)cc23)c(OC)c1 | 100 | 63.2 | 77.5 | – |
| CN[C@@H]1C[C@H]2O[C@@](C)([C@@H]1OC)n1c3ccccc3c3c4c(c5c6ccccc6n2c5c31)C(=O)NC4 [STAUROSPORINE] | – | – | 0.013 | Activity [13]: Active |
| CC(=O)OC[C@H]1O[C@@H](n2cc(C(c3ccc(Cl)cc3)c3cn([C@@H]4O[C@H](COC(C)=O)[C@@H](OC(C)=O)[C@H](OC(C)=O)[C@H]4OC(C)=O)c4ccc(Br)cc34)c3cc(Br)ccc32)[C@H](OC(C)=O)[C@@H](OC(C)=O)[C@@H]1OC(C)=O | 24 | 70 | > 100 | – |
| Clc1ccc(C(c2c[nH]c3ccc(Br)cc23)c2c[nH]c3ccc(Br)cc23)cc1 | 8.5 | 4.8 | 3.5 | inhibition [4]: Active |
| COc1cccc(C(c2c[nH]c3ccc(Br)cc23)c2c[nH]c3ccc(Br)cc23)c1OC | 100 | 64.5 | 89 | – |
| N#Cc1ccc2[nH]cc(C(c3ccc([N+](=O)[O-])cc3)c3c[nH]c4ccc(C#N)cc34)c2c1 | > 100 | > 100 | 23.6 | – |
| CN(C)c1ccc(C(c2c[nH]c3ccc(Br)cc23)c2c[nH]c3ccc(Br)cc23)cc1 | 25 | 12.8 | 24.9 | – |
| CC[C@@]1(O)C(=O)OCc2c1cc1n(c2=O)Cc2cc3ccccc3nc2-1 [CAMPTOTHECIN] | – | – | – | Activity [10]: 33.1% |
| O=[N+]([O-])c1ccc2[nH]cc(C(c3ccc(Cl)cc3)c3c[nH]c4ccc([N+](=O)[O-])cc34)c2c1 | > 100 | > 100 | > 100 | – |
